Data: ChEMBL document CHEMBL1201862, “PubChem BioAssay data set” (2004)
Activity calls are given as the source filed them.

Assays:
[1] = target: T1, Carboxy-terminal domain RNA polymerase II polypeptide A small phosphatase 1 (Homo sapiens, UniProt Q9GZU7); assay: inhibitors of CTDSP1, concentration-response testing, biochemical assay, absorbance-based, actives from ultra-high-throughput screening (AID 540297); format: functional
T1 sequence (Q9GZU7 whole entry): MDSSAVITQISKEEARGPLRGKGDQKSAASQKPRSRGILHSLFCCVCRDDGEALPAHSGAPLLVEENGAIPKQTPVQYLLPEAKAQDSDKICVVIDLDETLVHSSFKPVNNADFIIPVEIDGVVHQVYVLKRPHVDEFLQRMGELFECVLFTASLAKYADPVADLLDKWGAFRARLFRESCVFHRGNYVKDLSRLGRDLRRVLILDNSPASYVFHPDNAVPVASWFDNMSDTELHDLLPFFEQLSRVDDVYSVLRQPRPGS

[2] = target: FAD-linked sulfhydryl oxidase ALR (Homo sapiens, UniProt P55789); assay: inhibitors of human ALR sulfhydryl oxidase, dose response, biochemical, H2O2 detection, luminescence, cherry-pick (AID 493248)
[3] = C. albicans growth with fluconazole, confirmation, fluorescence, retest (AID 2467); format: functional, cell-based
[4] = cytotoxicity toward NIH3T3 fibroblasts, dose response, counter-screen, cell-based, ATP luminescence, mouse fibroblasts (AID 2010); format: functional;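 also: cells exposed to compound for about 90 hours before reading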
[5] = target: T2, Microphthalmia-associated transcription factor (Homo sapiens, UniProt O75030); assay: TRPM1 promoter luciferase signal decrease, dose response, MITF inhibitor project, cell-based, SK-MEL-5, cherry-picked, set 3 (AID 493073); format: functional
T2 sequence (O75030 whole entry): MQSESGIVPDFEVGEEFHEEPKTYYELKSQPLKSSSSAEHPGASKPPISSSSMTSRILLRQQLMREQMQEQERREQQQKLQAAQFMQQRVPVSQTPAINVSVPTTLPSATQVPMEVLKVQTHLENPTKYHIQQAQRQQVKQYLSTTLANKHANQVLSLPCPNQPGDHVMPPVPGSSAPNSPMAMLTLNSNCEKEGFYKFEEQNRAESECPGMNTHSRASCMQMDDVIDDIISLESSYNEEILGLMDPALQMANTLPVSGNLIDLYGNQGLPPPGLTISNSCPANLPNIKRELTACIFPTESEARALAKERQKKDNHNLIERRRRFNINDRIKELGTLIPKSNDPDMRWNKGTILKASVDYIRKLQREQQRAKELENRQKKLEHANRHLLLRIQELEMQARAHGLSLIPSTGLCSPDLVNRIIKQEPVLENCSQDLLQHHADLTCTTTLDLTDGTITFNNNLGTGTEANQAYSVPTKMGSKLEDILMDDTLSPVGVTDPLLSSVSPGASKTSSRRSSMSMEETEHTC

[6] = target: T3, Heat shock factor protein 1 (Mus musculus, UniProt P38532); assay: inhibition of MG132-induced HSE-luciferase signal, confirmation, cell-based, NIH3T3, luminescence, dose retest (AID 2382); format: functional;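 also: NIH3T3 fibroblasts with HSF1-driven luciferase reporter stressed by proteasome inhibitor MG132; luminescence from HSF1-driven luciferase expression after 8 hours of MG132 stress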
T3 sequence (P38532 whole entry): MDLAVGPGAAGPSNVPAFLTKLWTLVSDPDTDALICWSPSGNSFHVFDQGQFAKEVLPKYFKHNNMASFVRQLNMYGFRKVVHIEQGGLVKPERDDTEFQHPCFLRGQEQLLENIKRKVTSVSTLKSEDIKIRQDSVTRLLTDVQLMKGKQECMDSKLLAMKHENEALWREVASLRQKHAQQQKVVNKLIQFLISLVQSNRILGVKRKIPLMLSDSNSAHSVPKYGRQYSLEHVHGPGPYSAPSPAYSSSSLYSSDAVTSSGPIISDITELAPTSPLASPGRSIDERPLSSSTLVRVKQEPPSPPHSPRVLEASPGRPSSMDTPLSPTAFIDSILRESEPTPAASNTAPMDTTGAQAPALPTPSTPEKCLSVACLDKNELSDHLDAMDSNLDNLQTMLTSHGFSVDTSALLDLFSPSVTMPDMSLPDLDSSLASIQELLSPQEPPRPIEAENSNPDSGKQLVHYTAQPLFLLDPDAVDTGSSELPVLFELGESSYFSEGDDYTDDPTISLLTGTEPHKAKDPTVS

[7] = target: T4, Replicative DNA helicase DnaB (Mycobacterium tuberculosis, UniProt P9WMR3); assay: DnaB intein splicing inhibitors, dose response, biochemical, cell-free fluorescence (AID 449749); format: functional
T4 sequence (P9WMR3 whole entry): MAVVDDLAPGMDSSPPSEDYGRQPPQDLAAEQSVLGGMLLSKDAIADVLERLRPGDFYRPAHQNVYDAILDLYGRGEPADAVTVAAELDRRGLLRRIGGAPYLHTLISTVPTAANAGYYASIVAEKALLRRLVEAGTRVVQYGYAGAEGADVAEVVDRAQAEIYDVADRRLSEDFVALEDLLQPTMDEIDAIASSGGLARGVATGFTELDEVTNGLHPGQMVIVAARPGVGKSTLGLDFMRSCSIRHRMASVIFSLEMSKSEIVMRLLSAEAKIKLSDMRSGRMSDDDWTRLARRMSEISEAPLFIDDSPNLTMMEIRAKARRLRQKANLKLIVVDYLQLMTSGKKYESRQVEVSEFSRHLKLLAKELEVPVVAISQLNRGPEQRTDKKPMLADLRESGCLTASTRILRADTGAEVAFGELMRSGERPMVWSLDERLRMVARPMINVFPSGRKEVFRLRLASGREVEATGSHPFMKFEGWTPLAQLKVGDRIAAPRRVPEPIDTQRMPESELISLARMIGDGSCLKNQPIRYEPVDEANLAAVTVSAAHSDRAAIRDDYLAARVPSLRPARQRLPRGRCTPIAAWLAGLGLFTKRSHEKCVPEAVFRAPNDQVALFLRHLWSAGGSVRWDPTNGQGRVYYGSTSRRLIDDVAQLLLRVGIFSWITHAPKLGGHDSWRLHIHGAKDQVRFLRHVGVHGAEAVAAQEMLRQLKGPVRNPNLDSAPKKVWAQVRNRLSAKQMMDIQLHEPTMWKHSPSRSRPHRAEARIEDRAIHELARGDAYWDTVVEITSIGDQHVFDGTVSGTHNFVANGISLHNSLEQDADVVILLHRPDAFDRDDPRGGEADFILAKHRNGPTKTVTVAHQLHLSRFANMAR

Protein RecA = target: T5, Protein RecA (Mycobacterium tuberculosis, UniProt P9WHJ3); assay: Fluorescence Cell-Free Homogeneous Dose Retest to Identify Inhibitors of RecA-Intein Splicing Activity. [Related pubchem assays (depositor defined):AID2097, AID2223, AID489010, AID492950]; format: functional
T5 sequence (P9WHJ3 whole entry): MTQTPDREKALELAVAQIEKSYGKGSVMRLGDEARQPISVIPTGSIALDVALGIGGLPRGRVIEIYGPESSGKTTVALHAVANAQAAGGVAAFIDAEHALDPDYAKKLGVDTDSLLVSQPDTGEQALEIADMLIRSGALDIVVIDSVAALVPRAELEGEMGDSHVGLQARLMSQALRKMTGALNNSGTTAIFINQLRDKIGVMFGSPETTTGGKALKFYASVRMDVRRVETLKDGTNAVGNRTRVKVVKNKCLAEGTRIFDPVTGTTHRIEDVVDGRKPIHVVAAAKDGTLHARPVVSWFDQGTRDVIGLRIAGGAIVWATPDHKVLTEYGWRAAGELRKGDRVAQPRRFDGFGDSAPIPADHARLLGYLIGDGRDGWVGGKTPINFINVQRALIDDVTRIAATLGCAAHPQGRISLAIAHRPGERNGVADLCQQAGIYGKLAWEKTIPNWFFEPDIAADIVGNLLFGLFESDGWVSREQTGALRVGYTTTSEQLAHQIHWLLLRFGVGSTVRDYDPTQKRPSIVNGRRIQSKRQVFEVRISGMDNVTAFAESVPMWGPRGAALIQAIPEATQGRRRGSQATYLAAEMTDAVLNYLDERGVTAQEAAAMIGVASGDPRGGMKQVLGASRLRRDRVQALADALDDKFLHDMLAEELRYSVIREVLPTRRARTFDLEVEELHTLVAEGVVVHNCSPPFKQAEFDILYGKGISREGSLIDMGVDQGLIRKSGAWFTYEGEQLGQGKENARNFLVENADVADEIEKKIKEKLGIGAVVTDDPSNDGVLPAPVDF

[8] = NIH-3T3 fibroblast cytotoxicity, dose response, cytotoxicity control, cell-based, fluorescence, Alamar Blue, secondary assay (AID 2327); format: functional;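 also: NIH-3T3 mouse fibroblasts cultured with fluconazole at 8 µg/mL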
[9] = inhibitors of intracellular T. cruzi replication, confirmation, NIH3T3 host cells, beta-gal luminescence (AID 2044); format: functional, cell-based;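 also: intracellular parasites grown in NIH/3T3 mouse fibroblasts as host cells; luminescent beta-galactosidase reporter signal from transgenic T. cruzi replicating inside host cells; inhibitors lower the luminescence signal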
[10] = target: T6, RNA-binding protein pos-1 (Caenorhabditis elegans, UniProt G5EF15); assay: inhibitors of POS-1/mex-3 RNA binding, dose response, biochemical, fluorescence polarization (AID 1964);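 also: purified POS-1 fused to maltose binding protein made in E. coli; potency of compounds blocking POS-1 binding to fluorescent RNA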
T6 sequence (G5EF15 whole entry): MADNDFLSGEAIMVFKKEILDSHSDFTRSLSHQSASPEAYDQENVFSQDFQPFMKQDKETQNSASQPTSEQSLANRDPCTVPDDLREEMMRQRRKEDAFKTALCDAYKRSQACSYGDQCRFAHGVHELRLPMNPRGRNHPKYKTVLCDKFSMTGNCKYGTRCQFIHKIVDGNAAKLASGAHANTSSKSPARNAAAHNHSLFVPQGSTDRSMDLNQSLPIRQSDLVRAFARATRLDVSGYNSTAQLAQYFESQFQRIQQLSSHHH

cells [11] = format: functional, cell-based
cells [12] = format: functional, cell-based; remark: listed apart in the source
[13] = target: T7, Zinc finger protein mex-5 (Caenorhabditis elegans, UniProt Q9XUB2); assay: MEX-5/TCR-2 RNA interaction inhibitors, dose response, biochemical, C. elegans, fluorescence polarization (AID 1960)
T7 sequence (Q9XUB2 whole entry): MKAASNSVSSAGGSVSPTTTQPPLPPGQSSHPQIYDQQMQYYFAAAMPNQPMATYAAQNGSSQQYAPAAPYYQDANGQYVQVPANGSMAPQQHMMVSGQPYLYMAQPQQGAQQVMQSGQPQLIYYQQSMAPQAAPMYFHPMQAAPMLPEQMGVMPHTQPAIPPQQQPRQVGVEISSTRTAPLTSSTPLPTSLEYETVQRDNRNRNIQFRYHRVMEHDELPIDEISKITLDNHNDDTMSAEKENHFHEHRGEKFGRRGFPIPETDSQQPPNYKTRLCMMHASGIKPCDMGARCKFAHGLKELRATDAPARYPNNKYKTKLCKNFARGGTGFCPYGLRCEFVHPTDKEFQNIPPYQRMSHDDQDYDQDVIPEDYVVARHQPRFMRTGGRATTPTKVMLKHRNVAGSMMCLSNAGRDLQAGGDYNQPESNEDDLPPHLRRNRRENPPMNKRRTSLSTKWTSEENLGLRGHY

INS1 = assay: beta cell apoptosis inhibitors, cytokine rescue, dose response, luminescence, retest (AID 449756); format: functional, cell-based; conditions: Rattus norvegicus;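 also: cell death triggered by IL-1 beta plus TNF-alpha plus IFN-gamma mixture; protective hits raise ATP signal compared with cytokine alone wells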
Genome polyprotein = Genome polyprotein (dengue virus type 2, UniProt P29990); assay: Dengue-2 NS5 methyltransferase inhibitors, primary screen, biochemical, confirmation dose response (AID 588689); format: functional
[14] = target: Heat shock protein HSP 90-alpha (Homo sapiens, UniProt P07900); format: functional, organism-based
Streptococcus = assay: Group A Streptococcus viability loss, dose response, counter-screen for streptokinase expression inhibitor project, luminescence, BacTiterGlo (AID 1915); format: functional, organism-based;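 also: potency for reduction of bacterial viability or growth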
[15] = tested on: Streptococcus sp. 'group A'; assay: growth inhibition of control SK(-) GAS strain, dose response, counter-screen for streptokinase expression inhibitor project, luminescence, kanamycin, BacTiterGlo, confirmation (AID 1900); format: functional, organism-based

Chain of FAD-linked sulfhydryl oxidase ALR (P55789 whole entry): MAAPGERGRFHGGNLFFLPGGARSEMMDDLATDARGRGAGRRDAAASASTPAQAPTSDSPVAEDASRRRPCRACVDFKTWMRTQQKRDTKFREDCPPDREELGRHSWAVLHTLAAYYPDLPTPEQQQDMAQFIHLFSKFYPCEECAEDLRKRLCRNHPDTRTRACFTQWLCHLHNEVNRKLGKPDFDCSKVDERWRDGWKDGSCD
Chain of Genome polyprotein (P29990 2492-3391 limits assumed): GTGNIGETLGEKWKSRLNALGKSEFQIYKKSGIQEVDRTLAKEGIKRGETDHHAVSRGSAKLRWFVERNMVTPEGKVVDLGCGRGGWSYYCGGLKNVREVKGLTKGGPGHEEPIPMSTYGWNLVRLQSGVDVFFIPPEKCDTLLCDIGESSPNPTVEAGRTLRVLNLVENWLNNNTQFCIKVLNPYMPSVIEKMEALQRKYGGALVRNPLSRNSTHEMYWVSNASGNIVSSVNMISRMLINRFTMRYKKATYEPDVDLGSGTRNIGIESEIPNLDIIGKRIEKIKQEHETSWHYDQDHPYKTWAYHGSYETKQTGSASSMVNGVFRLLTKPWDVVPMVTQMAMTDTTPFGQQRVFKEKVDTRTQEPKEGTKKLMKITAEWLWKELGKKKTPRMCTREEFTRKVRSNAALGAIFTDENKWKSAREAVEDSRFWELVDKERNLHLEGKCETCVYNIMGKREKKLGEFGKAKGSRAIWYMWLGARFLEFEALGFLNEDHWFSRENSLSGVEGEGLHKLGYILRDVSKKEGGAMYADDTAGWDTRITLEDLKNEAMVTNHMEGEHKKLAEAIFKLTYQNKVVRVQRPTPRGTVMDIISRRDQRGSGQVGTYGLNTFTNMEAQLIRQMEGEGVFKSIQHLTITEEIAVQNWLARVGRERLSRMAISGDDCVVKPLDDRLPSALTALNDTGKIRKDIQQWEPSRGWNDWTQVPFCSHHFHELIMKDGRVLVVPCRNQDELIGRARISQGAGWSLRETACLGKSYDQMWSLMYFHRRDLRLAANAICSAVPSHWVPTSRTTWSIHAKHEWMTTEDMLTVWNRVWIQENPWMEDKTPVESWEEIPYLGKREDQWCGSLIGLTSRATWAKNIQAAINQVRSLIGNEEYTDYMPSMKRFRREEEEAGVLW

O=C(Nc1ccc(F)cc1)c1cccc(N2C(=O)c3ccccc3C2=O)c1
IC50 [1]: 11.1 µM (active)

Oc1ccc(Br)cc1-c1cc(-c2ccco2)[nH]n1
AC50 [2]: 3.51 µM (active)

O=C(CCl)Nc1ccc(-c2ccccc2)cc1
EC50 [3]: 1.77 µM (active) | EC50 [4]: < 6 µM (inconclusive) | AC50 [5]: 7.3 µM (active) | EC50 [6]: 9.64 µM (active) | AC50 [7]: 20.5 µM (active) | EC50 (Protein RecA): 0.587 µM (active) | EC50 [8]: 4.59 µM (inconclusive) | EC50 [9]: 1.69 µM (active)

CC1(OC(=O)c2cccs2)C(=O)C=C2C=C(C3CC3)OC=C2C1=O (configuration not stated)
EC50 [10]: 42.3 µM (active) | EC50 (cells [11]): > 350 µM (not active) | EC50 (cells [12]): > 350 µM (not active) | EC50 [13]: 33 µM (active)

C=C1c2cccc(OC)c2O[C@H](C(=O)OCC)[C@@H]1CC(CC)CCCC (some centres not stated)
IC50 [1]: 52.1 µM (active)

C[N+]1=C(/C=C/Nc2ccccc2Cl)C(C)(C)c2ccccc21
IC50 [1]: 5.96 µM (active) | AC50 (INS1): 7.84 µM (active)

COc1cc(/C=C2\SC(=S)N(CCCCC(=O)O)C2=O)ccc1OS(=O)(=O)c1ccc(C)cc1
IC50 (Genome polyprotein): 39.8 µM (active) | IC50 [1]: 4.16 µM (active)

O=[N+]([O-])c1ccc(CSC2=NCCN2)cc1
AC50 [2]: 0.04 µM (active)

COc1ccc2cc3cc(C(=O)NCc4ccco4)oc3nc2c1
IC50 [1]: 10.1 µM (active)

Fc1ccc(CSc2nnc(-c3cnccn3)n2Cc2ccco2)cc1
AC50 [2]: 3.85 µM (active)

CCCc1ccc(C(=O)NNC(=O)c2ccc(Br)cc2)cc1
IC50 [1]: 5.88 µM (active)

CCC(C)C(=O)N1CCc2cc(-c3csc(N)n3)ccc21 (configuration not stated)
AC50 [2]: 0.3 µM (active)

CCCCOc1ccc(CNC(=O)NS(=O)(=O)c2ccc(OCC(C)C)cc2)cc1
IC50 [1]: 14.8 µM (active)

CCN(C(=O)C1CCCN(c2nc(-c3ccc(OC)cc3)no2)C1)c1ccc(OC)cc1 (configuration not stated)
AC50 [14]: 7.81 µM (active)

O=C(O)c1cccc(NC(=O)c2cccc(NC(=O)C3CCCO3)c2)c1 (configuration not stated)
AC50 [5]: 21.2 µM (active)

O=C(/C=C/c1ccccc1)CCN1CCCCC1
AC50 [14]: 3.9 µM (active)

O=S(=O)(c1c(F)cccc1F)N(CCc1ccc(F)cc1)C[C@@H](O)COCc1ccccc1
AC50 [14]: 0.392 µM (active)

Cc1cc(-c2nnc(S)n2/N=C/C(Cl)=C/c2ccccc2)[nH]n1
AC50 [2]: 0.109 µM (active)

Cc1cccc(/C=N/NC(=O)c2ccc3c(c2)OCCO3)c1O
EC50 (Streptococcus): 6.82 µM (active) | EC50 [15]: 3.05 µM (active) | EC50 (cells [11]): 66.1 µM (active) | EC50 (cells [12]): 6.39 µM (active) | AC50 (INS1): 1.8 µM (active)

C/C(=N\NC(=O)CCCNc1cccc(C)c1)c1ccncc1
AC50 [2]: 2.59 µM (active)

C/C(=N\Nc1ccc(Cl)cc1)c1ccccn1
AC50 [2]: 1.03 µM (active)
